Like-named read-outs stand apart in the source and are kept apart here.
Experiments:
serotonin transporter = biological target: T1, serotonin transporter (Rattus norvegicus, UniProt P31652); assay: 5-HT transporter affinity: displacement of 3H-paroxetine from male rat cortical membranes; format: binding; conditions: displacement of 3H-paroxetine; male rat cortical membranes; read-out: 5-HT Transporter Affinity Ki
T1 construct: displace ^3H-paroxetine from male rat cortical membranes; from tissue; host or cells: male rat cortical membranes

[1] = biological target: T2, cloned human 5-HT1A receptors (Homo sapiens, UniProt P08908); assay: 35S-GTPγS binding assay, 5-HT1A function; format: biochemical; conditions: for IC50: antagonist potency, reversal of 8-OH-DPAT, read-out: 5-HT1A Function GTPγS IC50; for EC50: agonist potency
T2 construct: expressed in transfected cells
T2 sequence (P08908 1-422): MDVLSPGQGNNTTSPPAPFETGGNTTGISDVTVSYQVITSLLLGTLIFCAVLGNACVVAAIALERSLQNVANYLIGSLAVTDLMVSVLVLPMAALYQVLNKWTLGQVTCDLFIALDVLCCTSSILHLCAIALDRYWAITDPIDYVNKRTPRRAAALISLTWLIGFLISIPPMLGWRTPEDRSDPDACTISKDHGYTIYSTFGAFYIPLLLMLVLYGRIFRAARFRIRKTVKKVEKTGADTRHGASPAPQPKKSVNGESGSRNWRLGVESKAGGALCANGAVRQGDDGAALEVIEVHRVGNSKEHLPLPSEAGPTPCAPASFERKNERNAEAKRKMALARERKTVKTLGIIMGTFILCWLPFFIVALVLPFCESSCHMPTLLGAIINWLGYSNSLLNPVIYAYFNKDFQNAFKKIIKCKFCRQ
Description: (§1) The agonist or antagonist activity at 5-HT1A receptors was established by using two different assays. […] Agonists produce an increase in binding whereas antagonists produce no increase but rather reverse the effects of the standard agonist 8-OH-DPAT. The test compound's maximum stimulatory effect is represented as the Emax, while its potency is defined by the EC50. The test compound's maximum inhibitory effect is represented as the Imax, while its potency is defined by the IC50. The second assay measured cAMP accumulation upon binding of the ligand to the 5-HT1A receptor. […] The test compound's maximum stimulatory or inhibitory effect is represented as the Emax while its potency is defined by either IC50 for an antagonist or EC50 for an agonist. [^3H]-8-OH-DPAT was used to determine maximum agonist or antagonist response in both functional assays.

5-HT1A receptor [2] = biological target: T3, 5-HT1A receptor (Homo sapiens, UniProt P08908); assay: cAMP accumulation assay, 5-HT1A function; format: cell-based; conditions: for IC50: cells marked IC50 (antagonist), read-out: 5-HT1A Function cAMP IC50; for 5-HT1A Function cAMP (Emax) / Emax: in brackets after EC50 or IC50; for EC50: cells marked EC50 (agonist); for Emax: read-out: 5-HT1A Function cAMP (Emax)
T3 sequence (P08908 1-422): T2 sequence (P08908 1-422)
Description: as §1

5-HT1A receptor [3] = biological target: T3, 5-HT1A receptor; assay: 5-HT1A receptor affinity: displacement of [3H] 8-OH-DPAT; format: binding; set-up: expressed in transfected cells; conditions: displacement of [3H] 8-OH-DPAT; CHO cells stably transfected with human 5-HT1A receptors; read-out: 5-HT1A Receptor Affinity Ki
[4] = maximum inhibitory effect, in brackets after IC50
[5] = maximum inhibitory effect, in brackets after IC50, read-out: 5-HT1A Function GTPγS (Imax)

T1 sequence (P31652 whole entry): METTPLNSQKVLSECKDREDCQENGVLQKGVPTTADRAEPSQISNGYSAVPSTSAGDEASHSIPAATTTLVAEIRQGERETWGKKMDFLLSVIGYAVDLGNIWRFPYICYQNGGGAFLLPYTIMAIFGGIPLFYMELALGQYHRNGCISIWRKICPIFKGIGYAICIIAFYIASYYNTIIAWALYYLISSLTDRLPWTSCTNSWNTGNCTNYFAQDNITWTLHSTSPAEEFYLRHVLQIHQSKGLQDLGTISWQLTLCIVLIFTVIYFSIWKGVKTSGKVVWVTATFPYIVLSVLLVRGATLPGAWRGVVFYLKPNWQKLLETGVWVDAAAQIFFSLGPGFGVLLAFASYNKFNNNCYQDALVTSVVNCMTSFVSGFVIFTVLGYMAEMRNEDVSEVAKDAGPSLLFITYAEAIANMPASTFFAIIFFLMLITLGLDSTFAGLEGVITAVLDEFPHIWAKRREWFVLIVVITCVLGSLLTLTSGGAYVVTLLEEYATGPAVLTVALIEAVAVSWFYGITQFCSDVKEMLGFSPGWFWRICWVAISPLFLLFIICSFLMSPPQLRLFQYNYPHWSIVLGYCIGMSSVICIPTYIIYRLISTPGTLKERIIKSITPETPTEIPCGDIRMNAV

Compound: CCN(CC1CCc2[nH]c3ccc(F)cc3c2C1)[C@H]1COc2c(F)ccc(C(N)=O)c2C1 (single isomer, unassigned; (+)) [Compound 176b]
- Ki (serotonin transporter): 165 nM
- IC50 [1]: 827 nM
- 5-HT1A Function GTPγS (Imax) [1, 4]: 88%
- IC50 (5-HT1A receptor [2]): 669 nM
- 5-HT1A Function cAMP (Emax) (5-HT1A receptor [2]): 0%
- Ki (5-HT1A receptor [3]): 24.6 nM

Compound: CCCN(CC1CCc2[nH]c3ccc(F)cc3c2C1)[C@H]1COc2c(F)ccc(C(N)=O)c2C1 (single isomer, unassigned; (+)) [Compound 177b]
- Ki (serotonin transporter): 181 nM
- IC50 [1]: 181 nM
- 5-HT1A Function GTPγS (Imax) [1, 4]: 74%
- IC50 (5-HT1A receptor [2]): 36.2 nM
- 5-HT1A Function cAMP (Emax) (5-HT1A receptor [2]): 0%
- Ki (5-HT1A receptor [3]): 7.34 nM

Compound: NC(=O)c1ccc(F)c2c1C[C@@H](N(CC1CC1)CC1CCc3[nH]c4ccc(F)cc4c3C1)CO2 (single isomer, unassigned; (+)) [Compound 178b]
- Ki (serotonin transporter): 116 nM
- IC50 [1]: 611 nM
- 5-HT1A Function GTPγS (Imax) [1, 4]: 99%
- IC50 (5-HT1A receptor [2]): 224 nM
- 5-HT1A Function cAMP (Emax) (5-HT1A receptor [2]): 0%
- Ki (5-HT1A receptor [3]): 9.48 nM

Compound: CCCN(CCCc1c[nH]c2ccc(F)cc12)C1COc2c(F)ccc(C(N)=O)c2C1 (single isomer, unassigned; (-)) [Compound 2a, (−)-8-fluoro-3-[[3-(5-fluoro-1H-indol-3-yl)propyl](propyl)amino]-3,4-dihydro-2H-chromene-5-carboxamide]
- Ki (serotonin transporter): 8.5 nM
- IC50 [1]: 405 nM
- Emax [1, 5]: 77.4%
- EC50 (5-HT1A receptor [2]): 18.5 nM
- Emax (5-HT1A receptor [2]): 77.5%
- Ki (5-HT1A receptor [3]): 1.48 nM

Compound: CCN(CCCc1c[nH]c2ccc(F)cc12)C1COc2c(F)ccc(C(N)=O)c2C1 (single isomer, unassigned; (-)) [Compound 3a, (−)-3-{ethyl[3-(5-fluoro-1H-indol-3-yl)propyl]amino}-8-fluoro-3,4-dihydro-2H-chromene-5-carboxamide]
- Ki (serotonin transporter): 5 nM
- IC50 [1]: 1300 nM
- 5-HT1A Function GTPγS (Imax) [1, 4]: 79%
- IC50 (5-HT1A receptor [2]): 135 nM
- 5-HT1A Function cAMP (Emax) (5-HT1A receptor [2]): 0%
- Ki (5-HT1A receptor [3]): 35.1 nM

Compound: NC(=O)c1ccc(F)c2c1CC(N(CCCc1c[nH]c3c(F)cc(F)cc13)C1CCC1)CO2 (single isomer, unassigned; (-)) [Compound 9a, (−)-3-{cyclobutyl[3-(5,7-difluoro-1H-indol-3-yl)propyl]amino}-8-fluorochromane-5-carboxamide]
- Ki (serotonin transporter): 3.34 nM
- IC50 [1]: 207 nM
- 5-HT1A Function GTPγS (Imax) [1, 4]: 100%
- IC50 (5-HT1A receptor [2]): 61.1 nM
- Emax (5-HT1A receptor [2]): 0%
- Ki (5-HT1A receptor [3]): 1.73 nM

Compound: CCCN(C(C)CCCc1c[nH]c2ccc(F)cc12)C1COc2c(F)ccc(C(N)=O)c2C1 (single isomer, unassigned; (-)) [Compound 14b, (−)-8-fluoro-3-[[4-(5-fluoro-1H-indol-3-yl)-1-methylbutyl](propyl)amino]chromane-5-carboxamide]
- Ki (serotonin transporter): 9.5 nM
- IC50 [1]: 477 nM
- 5-HT1A Function GTPγS (Imax) [1, 4]: 100%
- IC50 (5-HT1A receptor [2]): 110 nM
- 5-HT1A Function cAMP (Emax) (5-HT1A receptor [2]): 0%
- Ki (5-HT1A receptor [3]): 1.88 nM

Compound: CC(CCc1c[nH]c2ccc(F)cc12)N(CC1CC1)C1COc2c(F)ccc(C(N)=O)c2C1 (single isomer, unassigned; (-)) [Compound 15a, (−)-3-{(cyclopropylmethyl)[3-(5-fluoro-1H-indol-3-yl)-1-methylpropyl]amino}-8-fluorochromane-5-carboxamide]
- Ki (serotonin transporter): 10.2 nM
- IC50 [1]: 333 nM
- Emax [1, 5]: 100%
- IC50 (5-HT1A receptor [2]): 72.7 nM
- 5-HT1A Function cAMP (Emax) (5-HT1A receptor [2]): 0%
- Ki (5-HT1A receptor [3]): 1.88 nM

Compound: CCN(C(C)CCc1c[nH]c2ccc(F)cc12)C1COc2c(F)ccc(C(N)=O)c2C1 (single isomer, unassigned; (-)) [Compound 16a, (−)-3-{ethyl[3-(5-fluoro-1H-indol-3-yl)-1-methylpropyl]amino}-8-fluorochromane-5-carboxamide]
- Ki (serotonin transporter): 0.9 nM
- IC50 [1]: 3000 nM
- Emax [1, 5]: 100%
- IC50 (5-HT1A receptor [2]): 187 nM
- 5-HT1A Function cAMP (Emax) (5-HT1A receptor [2]): 0%
- Ki (5-HT1A receptor [3]): 37.3 nM

Compound: CCCN(CCCc1c[nH]c2ccc(F)cc12)C1CCc2c(F)ccc(OC)c2C1 (single isomer, unassigned; (-)) [Compound 51b, (−)-5-fluoro-N-[3-(5-fluoro-1H-indol-3-yl)propyl]-8-methoxy-N-propyl-1,2,3,4-tetrahydro-2-naphthalenamine]
- Ki (serotonin transporter): 1.12 nM
- IC50 [1]: 48 nM
- Emax [1, 5]: 46%
- IC50 (5-HT1A receptor [2]): 50 nM
- 5-HT1A Function cAMP (Emax) (5-HT1A receptor [2]): 0%
- Ki (5-HT1A receptor [3]): 14.2 nM

Compound: NC(=O)c1cccc2c1CC(N(CCCc1c[nH]c3ccc(F)cc13)C1CCC1)CO2 (single isomer, unassigned; (-)) [Compound 134a, (−)-3-{cyclobutyl[3-(5-fluoro-1H-indol-3-yl)propyl]amino}chromane-5-carboxamide]
- Ki (serotonin transporter): 2.75 nM
- EC50 [1]: 66 nM
- IC50 [1]: 191 nM
- Emax [1, 5]: 60%
- 5-HT1A Function GTPγS (Emax) ([1]; maximum stimulatory effect, in brackets after EC50): 30%
- EC50 (5-HT1A receptor [2]): 3.87 nM
- 5-HT1A Function cAMP (Emax) (5-HT1A receptor [2]): 89%
- Ki (5-HT1A receptor [3]): 0.66 nM

Compound: NC(=O)c1ccc(F)c2c1CC(N(CC1CCc3[nH]c4ccc(F)cc4c3C1)C1CCC1)CO2 (single isomer, unassigned; (-)) [Compound 174d, (−)-3-{cyclobutyl[(6-fluoro-2,3,4,9-tetrahydro-1H-carbazol-3-yl)methyl]amino}-8-fluorochromane-5-carboxamide]
- Ki (serotonin transporter): 322 nM
- IC50 [1]: 4750 nM
- 5-HT1A Function GTPγS (Imax) [1, 4]: 100%
- IC50 (5-HT1A receptor [2]): 304 nM
- 5-HT1A Function cAMP (Emax) (5-HT1A receptor [2]): 0%
- Ki (5-HT1A receptor [3]): 73.3 nM

Compound: NC(=O)c1ccc(F)c2c1C[C@@H](NCC1CCc3[nH]c4ccc(F)cc4c3C1)CO2 (single isomer, unassigned; (-)) [Compound 175a]
- Ki (serotonin transporter): 20.9 nM
- IC50 [1]: 429 nM
- 5-HT1A Function GTPγS (Imax) [1, 4]: 100%
- IC50 (5-HT1A receptor [2]): 1480 nM
- Emax (5-HT1A receptor [2]): 0%
- Ki (5-HT1A receptor [3]): 38 nM

Compound: CCN(CC1CCc2[nH]c3ccc(F)cc3c2C1)[C@H]1COc2c(F)ccc(C(N)=O)c2C1 (single isomer, unassigned; (-)) [Compound 176a]
- Ki (serotonin transporter): 619 nM
- IC50 [1]: 4260 nM
- Emax [1, 5]: 92%
- IC50 (5-HT1A receptor [2]): 878 nM
- Emax (5-HT1A receptor [2]): 0%
- Ki (5-HT1A receptor [3]): 392 nM

Compound: CCCN(CC1CCc2[nH]c3ccc(F)cc3c2C1)[C@H]1COc2c(F)ccc(C(N)=O)c2C1 (single isomer, unassigned; (-)) [Compound 177a]
- Ki (serotonin transporter): 5240 nM
- IC50 [1]: 2950 nM
- 5-HT1A Function GTPγS (Imax) [1, 4]: 100%
- IC50 (5-HT1A receptor [2]): 832 nM
- Emax (5-HT1A receptor [2]): 0%
- Ki (5-HT1A receptor [3]): 60.3 nM

Compound: NC(=O)c1ccc(F)c2c1C[C@@H](N(CC1CC1)CC1CCc3[nH]c4ccc(F)cc4c3C1)CO2 (single isomer, unassigned; (-)) [Compound 178a]
- Ki (serotonin transporter): 347 nM
- IC50 [1]: 8400 nM
- Emax [1, 5]: 100%
- IC50 (5-HT1A receptor [2]): 1260 nM
- Emax (5-HT1A receptor [2]): 0%
- Ki (5-HT1A receptor [3]): 117 nM

Compound: NC(=O)c1ccc(F)c2c1C[C@@H](NCC1CCc3c([nH]c4ccc(F)cc34)C1)CO2 (single isomer, unassigned; (-)) [Compound 179b]
- Ki (serotonin transporter): 85.5 nM
- IC50 [1]: 6040 nM
- 5-HT1A Function GTPγS (Imax) [1, 4]: 100%
- IC50 (5-HT1A receptor [2]): 956 nM
- Emax (5-HT1A receptor [2]): 0%
- Ki (5-HT1A receptor [3]): 24.2 nM

Compound: NC(=O)c1ccc(F)c2c1CC(NCCCc1c[nH]c3ccc(F)cc13)CO2 (centres unmarked) [Compound 1, 8-fluoro-3-{[3-(5-fluoro-1H-indol-3-yl)propyl]amino}chromane-5-carboxamide]
- Ki (serotonin transporter): 7 nM
- EC50 [1]: 5000 nM
- Emax ([1]; maximum stimulatory effect, in brackets after EC50, read-out: 5-HT1A Function GTPγS (Emax)): 100%
- EC50 (5-HT1A receptor [2]): 229 nM
- Emax (5-HT1A receptor [2]): 79.5%
- Ki (5-HT1A receptor [3]): 212 nM
